Our source for the IC50, Kd and BRET ratio values is publication PMC10095950, “Development of Cell Permeable NanoBRET Probes for the Measurement of PLK1 Target Engagement in Live Cells” (Molecules, 2023).

One test deals with T1, human PLK2 (NLuc-PLK2) (Homo sapiens, UniProt Q9NYY3).
T1 construct: ORFs corresponding to UniProt isoform 1 (PLK1: P53350-1, PLK2: Q9NYY3-1, and PLK3: Q9H4B4-1); host or cells: HEK293
Kind of test: PLK2 NanoBRET target engagement assay (NLuc-PLK2) in live HEK293 cells. The test is classed as cell-based. To be noted: HEK293, probe 11 1.0 µM, 2 h; average of two technical replicates ±15%. The protocol: (§1) HEK293 cells (ATCC) were cultured in DMEM (Gibco) + 10% FBS (Seradigm) with incubation in a humidified 37 °C/5% CO2 incubator. N- or C-terminal NLuc/PLK fusions were encoded in pFN31K expression vectors (Promega), including flexible Gly-Ser-Ser-Gly linkers between NLuc and ORFs corresponding to UniProt isoform 1 (PLK1: P53350-1, PLK2: Q9NYY3-1, and PLK3: Q9H4B4-1). Carrier DNA was encoded in pGEM-3Z vectors (Promega). For cellular BRET target engagement experiments, HEK293 cells were transfected with NLuc/PLK fusion constructs using FuGENE HD (Promega) according to the manufacturer’s protocol. Briefly, NLuc/PLK fusion constructs were diluted into Transfection Carrier DNA (Promega) at a mass ratio of 1:9 (mass/mass), after which FuGENE HD was added at a ratio of 1:3 (µg DNA: µL FuGENE HD). One part (vol) of FuGENE HD complexes thus formed was combined with 20 parts (vol) of HEK293 cells suspended at a density of 2 × 10^5 per mL, followed by incubation in a humidified 37 °C/5% CO2 incubator for 20 hr.
(§2) To test BRET probes 10 and 11 against PLK1, HEK293 adherent cells were incubated with either NLuc fused to the N-terminus of PLK1 (NLuc-PLK1) or the C-terminus of PLK1 (PLK1-NLuc) using 1 µM of the BRET probe, and mBRET units were measured. […] NLuc-PLK2 and NLuc-PLK3 were tested with both probes 10 and 11 using the same protocol.
A general note: In BRET a luciferase serves as donor, and the signal depends on an acceptor being close.

Test [1] concerns a range of cancer cell lines. Further details: method as in as in column Ref. of Table 1 ([5]-[8],[14],[19]-[21]). The note with it: ref as in Table 1 ([5]-[8],[14],[19]-[21]), read-out: Reported Cell Proliferation IC50; cited from earlier work.
A further test deals with T2, human PLK3 (NLuc-PLK3) (Homo sapiens, UniProt Q9H4B4).
T2 construct: ORFs corresponding to UniProt isoform 1 (PLK1: P53350-1, PLK2: Q9NYY3-1, and PLK3: Q9H4B4-1); host or cells: HEK293
Briefly: PLK3 NanoBRET target engagement assay (NLuc-PLK3) in live HEK293 cells. It is filed as cell-based. The note with it: HEK293, probe 11 1.0 µM, 2 h; average of two technical replicates ±15%. The method, then:
as §1, §2

A further test concerns PLK1. To be noted: ref as in Table 1 ([5],[6],[8],[14],[19],[20],[21]); read-out: Reported Enzyme Inhibition IC50 PLK1; cited from earlier work.
The next test deals with T3, human PLK1 (NLuc-PLK1) (Homo sapiens, UniProt P53350).
T3 construct: plasmid DNAs encoding N- and C-terminal fusions of full-length PLK1 with NLuc; host or cells: HEK293
Briefly: PLK1 NanoBRET target engagement assay (NLuc-PLK1, N-terminal fusion) in live HEK293 cells. It is filed as cell-based. The protocol: as §1, with “Briefly, NLuc/PLK fusion constructs were diluted into Transfection Carrier DNA (Promega) at a mass ratio of 1:9 (mass/mass), after which FuGENE HD was added at a ratio of 1:3 (µg DNA: µL FuGENE HD).” left out
as §2
To estimate the half-maximal effective concentration (EC50) of probe 11 to PLK1 in cells, adherent HEK293 cells in a 96-well plate expressing the NLuc-PLK1 fusion protein were mixed with an increasing concentration of BRET probe 11. The resulting BRET ratio was fitted to the sigmoidal 4-parameter dose–response curve using Prism 9.0 (GraphPad, Boston MA, USA).

The target in the next test is T4, PLK1 (PLK1-NLuc) (Homo sapiens, UniProt P53350).
T4 construct: plasmid DNAs encoding N- and C-terminal fusions of full-length PLK1 with NLuc; host or cells: HEK293
Kind of test: BRET probe evaluation with NLuc fused to the C-terminus of PLK1 (PLK1-NLuc) in HEK293 cells. It is filed as cell-based. The note with it: 1 µM probe, PLK1-NLuc (C-terminal fusion), adherent HEK293 cells. The protocol: as §1
To test BRET probes 10 and 11 against PLK1, HEK293 adherent cells were incubated with either NLuc fused to the N-terminus of PLK1 (NLuc-PLK1) or the C-terminus of PLK1 (PLK1-NLuc) using 1 µM of the BRET probe, and mBRET units were measured. The combination with the highest mBRET units was selected for further processing. […]

Each structure is given as a SMILES string. Where two headings read alike, the source gives them in different places.

T3 sequence (P53350 whole entry, the tested form may be a part): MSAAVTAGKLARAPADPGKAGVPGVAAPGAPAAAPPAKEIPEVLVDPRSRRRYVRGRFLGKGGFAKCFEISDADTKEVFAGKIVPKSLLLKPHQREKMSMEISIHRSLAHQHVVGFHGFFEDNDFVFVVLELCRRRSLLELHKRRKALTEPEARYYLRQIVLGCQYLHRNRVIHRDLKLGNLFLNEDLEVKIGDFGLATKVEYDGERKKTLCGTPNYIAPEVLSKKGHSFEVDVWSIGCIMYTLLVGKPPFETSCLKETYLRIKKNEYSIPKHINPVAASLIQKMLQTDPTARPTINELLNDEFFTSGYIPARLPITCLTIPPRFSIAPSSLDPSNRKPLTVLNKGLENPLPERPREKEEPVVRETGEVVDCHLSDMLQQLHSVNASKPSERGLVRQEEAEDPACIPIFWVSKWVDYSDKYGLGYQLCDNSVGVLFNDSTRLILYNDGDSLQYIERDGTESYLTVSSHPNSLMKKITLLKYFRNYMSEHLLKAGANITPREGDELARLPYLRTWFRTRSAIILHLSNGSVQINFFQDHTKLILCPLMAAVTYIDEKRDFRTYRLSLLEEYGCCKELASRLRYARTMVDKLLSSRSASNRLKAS
T2 sequence (Q9H4B4 whole entry, canonical isoform): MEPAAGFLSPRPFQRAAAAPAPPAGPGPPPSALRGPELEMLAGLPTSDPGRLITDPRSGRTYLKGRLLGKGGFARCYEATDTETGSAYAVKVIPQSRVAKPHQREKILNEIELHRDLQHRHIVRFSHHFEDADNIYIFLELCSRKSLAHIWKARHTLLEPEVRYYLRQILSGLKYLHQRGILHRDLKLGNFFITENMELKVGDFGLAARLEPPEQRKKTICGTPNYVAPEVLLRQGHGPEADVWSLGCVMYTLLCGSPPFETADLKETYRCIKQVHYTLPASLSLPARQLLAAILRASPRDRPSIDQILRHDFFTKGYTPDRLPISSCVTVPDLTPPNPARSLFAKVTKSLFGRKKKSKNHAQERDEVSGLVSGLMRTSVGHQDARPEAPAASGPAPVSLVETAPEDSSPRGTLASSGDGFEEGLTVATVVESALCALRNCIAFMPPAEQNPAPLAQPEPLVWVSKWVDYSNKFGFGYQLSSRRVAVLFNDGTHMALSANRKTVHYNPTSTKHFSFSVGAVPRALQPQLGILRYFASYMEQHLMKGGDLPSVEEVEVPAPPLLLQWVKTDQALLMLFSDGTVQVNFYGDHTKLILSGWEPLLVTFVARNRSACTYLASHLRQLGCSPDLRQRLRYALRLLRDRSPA
T1 sequence (Q9NYY3 whole entry, canonical isoform): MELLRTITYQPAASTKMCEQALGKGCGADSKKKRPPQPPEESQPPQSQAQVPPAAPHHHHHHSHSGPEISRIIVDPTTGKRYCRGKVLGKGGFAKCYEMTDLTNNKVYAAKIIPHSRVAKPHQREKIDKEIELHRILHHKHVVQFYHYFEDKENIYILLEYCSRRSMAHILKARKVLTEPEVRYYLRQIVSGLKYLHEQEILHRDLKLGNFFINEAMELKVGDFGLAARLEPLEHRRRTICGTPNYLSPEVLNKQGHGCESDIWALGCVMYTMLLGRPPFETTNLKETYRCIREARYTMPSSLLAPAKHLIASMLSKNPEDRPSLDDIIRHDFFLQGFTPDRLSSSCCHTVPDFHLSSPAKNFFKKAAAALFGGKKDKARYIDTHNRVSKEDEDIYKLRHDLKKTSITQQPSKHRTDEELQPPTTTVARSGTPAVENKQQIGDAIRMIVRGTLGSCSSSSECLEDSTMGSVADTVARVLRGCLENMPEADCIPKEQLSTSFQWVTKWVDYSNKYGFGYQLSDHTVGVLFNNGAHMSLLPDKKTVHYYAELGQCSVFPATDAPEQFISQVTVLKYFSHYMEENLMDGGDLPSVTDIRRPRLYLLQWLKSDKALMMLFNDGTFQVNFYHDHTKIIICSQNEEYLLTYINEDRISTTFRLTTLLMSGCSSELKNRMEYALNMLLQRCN
T4 sequence (P53350 whole entry, the tested form may be a part): as the sequence (P53350 whole entry, the tested form may be a part) above

On to `CCC1(F)CN(C2CCCC2)c2nc(Nc3ccc(C(=O)NC4CCN(C)CC4)cc3OC)ncc2N(C)C1=O` (stereo not drawn) [TPKI-26], for which the IC50 against human PLK2 (NLuc-PLK2) was 64 nM; in test [1], 5 nM; against human PLK3 (NLuc-PLK3), 1700 nM.
For `CN1CCN(c2ccc(OC(F)(F)F)c(Nc3ncc4c(n3)-c3c(c(C(N)=O)nn3CCO)CC4)c2)CC1` [Onvansertib], the IC50 with PLK1 was […]; in test [1], 42 nM.
For the compound `C[C@@H](Oc1cc(-n2cnc3ccc(CN4CCN(C)CC4)cc32)sc1C(N)=O)c1ccccc1C(F)(F)F` [GSK461364], in test [1], the IC50 was 10 to 100 nM.
As to `CC[C@@H]1C(=O)N(C)c2cnc(Nc3ccc(C(=O)NC4CCNCC4)cc3OC)nc2N1C(C)C` [compound 1, (R)-4-((7-ethyl-8-isopropyl-5-methyl-6-oxo-5,6,7,8-tetrahydropteridin-2-yl)amino)-3-methoxy-N-(piperidin-4-yl)benzamide], the IC50 on human PLK1 (NLuc-PLK1) (Probe 11 Conc. 0.1 μM, NLuc-PLK1, ADH format, read-out: apparent IC50) was 203 nM; at human PLK1 (NLuc-PLK1) (Probe 11 Conc. 0.2 μM, NLuc-PLK1, ADH format, read-out: apparent IC50) it was 228 nM; on human PLK1 (NLuc-PLK1) (Probe 11 Conc. 0.4 μM, NLuc-PLK1, ADH format, read-out: apparent IC50) it was 246 nM; on human PLK1 (NLuc-PLK1) (Probe 11 Conc. 0.6 μM, NLuc-PLK1, ADH format, read-out: apparent IC50), 285 nM; at human PLK1 (NLuc-PLK1) (Probe 11 Conc. 0.8 μM, NLuc-PLK1, ADH format, read-out: apparent IC50) it was 291 nM; on human PLK1 (NLuc-PLK1) (Probe 11 Conc. 1 μM, NLuc-PLK1, ADH format, read-out: apparent IC50) it was 316 nM. In addition, the Kd on human PLK1 (NLuc-PLK1) (linearized Cheng–Prusoff analysis, y-intercept of IC50 vs probe 11 concentration, live HEK293 cells, read-out: apparent KD for intracellular target engagement of PLK1) stood at 120 nM.
In the case of `Cc1ncc(CCCN(C)C)cc1Nc1ncc2c(n1)-c1ccc(C(F)(F)F)cc1NC(=S)C2` [MLN0905], the IC50 in the test on PLK1 is 2 nM.
`CC[C@@H]1C(=O)N(C)c2cnc(Nc3ccc(C(=O)NC4CCN(C(=O)CCc5ccc6n5[B-](F)(F)[N+]5=C(c7ccc[nH]7)C=CC5=C6)CC4)cc3OC)nc2N1C(C)C` [probe 10, (R)-N-(1-(3-(5,5-difluoro-7-(1H-pyrrol-2-yl)-5H-5^λ,6^λ-dipyrrolo[1,2-c:2’,1’-f][1-3]diazaborinin-3-yl)propanoyl)piperidin-4-yl)-4-((7-ethyl-8-isopropyl-5-methyl-6-oxo-5,6,7,8-tetrahydropteridin-2-yl)amino)-3-methoxybenzamide]: the BRET ratio at PLK1 (PLK1-NLuc) is ~ 15; at human PLK1 (NLuc-PLK1) (1 µM probe, NLuc-PLK1, adherent HEK293 cells), ~ 39.
With `CC[C@@H]1C(=O)N(C)c2cnc(Nc3ccc(C(=O)N[C@H]4CC[C@H](N5CCN(CC6CC6)CC5)CC4)cc3OC)nc2N1C(C)C` [Volasertib], the IC50 was 0.87 nM in the test on PLK1; 23 nM against human PLK2 (NLuc-PLK2); 11 to 37 nM in test [1]; 59 nM on human PLK3 (NLuc-PLK3); 18 nM on human PLK1 (NLuc-PLK1) (HEK293, probe 11 0.2 µM, 2 h, average of two technical replicates ±15%, read-out: NanoBRET Target Engagement IC50 PLK1).
Consider `COc1cc(C(=O)NC2CCN(C)CC2)ccc1Nc1ncc2c(n1)N(C1CCCC1)CC(F)(F)C(=O)N2C` [Ro3280], for which the IC50 on human PLK2 (NLuc-PLK2) was 45 nM; in test [1], 6 to 45 nM; on human PLK3 (NLuc-PLK3) it was 180 nM.
